Patent US11306066B2, “4H-pyran compounds as insulin-regulated aminopeptidase (IRAP) inhibitors” (Monash University, priority 2015, dated 2022)

System: primary cultures of rat hippocampal neurons
Experiment: In vitro hippocampal spine density
Assay type: cell-based
Settings: chronic treatment (3 doses of 10^−5M), days 14, 17 and 20; FIG. 1
Description: In Vitro Hippocampal Spine Density
Dendritic spines are a complex, distinct cellular compartment that protrude from neuronal processes, and act as a source of synaptic contact vital for plasticity, signalling and neuronal integration. Hippocampal spine density increases in the rat brain after learning of an associative task, thereby acting as a substrate for the new memories. Drugs that enhance actin reorganisation in dendritic spines, a requirement for stabilisation of memory, have been proposed for the treatment of memory disorders.
Hippocampi from E18 rat pups were dissected into cold Hank's Basic Salt Solution, rinsed three times and incubated in 5 ml of 0.12% w/v trypsin and 40 μg/ml DNAse (Sigma-Aldrich, St. Louis, USA) for 20 minutes at 37° C. Clumped cells were triturated for one minute with a sterile 1 ml pipette. […] Cell density in a 1/10 dilution was measured using a haemocytometer. […]
For immunohistochemical staining of spines, coverslips were removed from plates and washed in PBS, then incubated in PBSX for 15 minutes to permeabilise membranes. […] Spines highlighted by drebrin immunostaining were counted in Image J. Single neurites were identified and all spines along a fifty micron segment were counted. […]

SMILES: CC(=O)C1=C(C)OC(N)=C(C#N)C1c1ccc(C(=O)O)cc1.N (stereo not shown) [Test Compound 1]
- dendritic spine densities: statistically significant increases
